This note sets out measurements from PubChem BioAssay (NCI).

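Growth conditions: 96-well plates. Treatment: test compound, 48 hours, 5 concentrations. Analysis: linear interpolation between bracketing concentrations; unreached endpoints set to highest concentration. TGI: total growth inhibition.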

One experiment deals with T-47D breast. The experiment is described as follows: NCI-60 cell line screen, 48 h.
For `CC1(C)C=Cc2c(cc(O)c3c(=O)c4cc(Cl)ccc4[nH]c23)O1`, the TGI is above 10 µM.

As for `O=C(NC1CCCCC1NC(c1ccccc1)(c1ccccc1)c1ccccc1)C(=O)NC1CCCCC1NC(c1ccccc1)(c1ccccc1)c1ccccc1` (configuration not stated), the TGI is above 100 µM.

Take `CS(=O)(=O)OCC1CN(S(C)(=O)=O)c2cc(O)ccc21` (configuration not stated): the TGI came out at 1.96 µM.

As to `O=C(O)C12C3CCC(CC3)C1(C(=O)O)C1CCC2C1` (configuration not stated), the TGI is above 100 µM.

In turn, `CC1=NC(=Cc2cccc(Cl)c2)C(=O)N1n1c(-c2ccccc2)nc2ccccc2c1=O` gave a TGI of 69 µM.

`CO/C(=N\N=C\c1ccc(OC)c(OC)c1)c1ccncc1` gave a TGI above 10 µM.

On to `CC(C)(C)OC(=O)N/N=C(/N)Cc1ccc(Cl)cc1`, for which the TGI is above 100 µM.

A further experiment deals with SN12C renal. The experiment is described as follows: NCI-60 cell line screen, 48 h.
In turn, `CC1(C)C=Cc2c(cc(O)c3c(=O)c4cc(Cl)ccc4[nH]c23)O1` gave a TGI above 10 µM.

Molecule `O=C(NC1CCCCC1NC(c1ccccc1)(c1ccccc1)c1ccccc1)C(=O)NC1CCCCC1NC(c1ccccc1)(c1ccccc1)c1ccccc1` (configuration not stated) came in with a TGI above 100 µM.

Molecule `CS(=O)(=O)OCC1CN(S(C)(=O)=O)c2cc(O)ccc21` (configuration not stated) gave a TGI of 13.5 µM.

Molecule `O=C(O)C12C3CCC(CC3)C1(C(=O)O)C1CCC2C1` (configuration not stated) gave a TGI above 100 µM.

Consider `CC1=NC(=Cc2cccc(Cl)c2)C(=O)N1n1c(-c2ccccc2)nc2ccccc2c1=O`, for which the TGI is above 100 µM.

`CO/C(=N\N=C\c1ccc(OC)c(OC)c1)c1ccncc1` had a TGI above 10 µM.

With `CC(C)(C)OC(=O)N/N=C(/N)Cc1ccc(Cl)cc1`, the TGI is above 100 µM.

Another experiment concerns M14 melanoma. Kind of experiment: NCI-60 cell line screen, 48 h.
In turn, `O=C(O)C12C3CCC(CC3)C1(C(=O)O)C1CCC2C1` (configuration not stated) registered a TGI above 100 µM.

`CC1=NC(=Cc2cccc(Cl)c2)C(=O)N1n1c(-c2ccccc2)nc2ccccc2c1=O` had a TGI above 100 µM.

For `CO/C(=N\N=C\c1ccc(OC)c(OC)c1)c1ccncc1`, the TGI is above 10 µM.

For the molecule `CC(C)(C)OC(=O)N/N=C(/N)Cc1ccc(Cl)cc1`, the TGI was above 100 µM.

The next experiment relates to OVCAR-3 ovarian. The experiment is described as follows: NCI-60 cell line screen, 48 h.
Turning to `CC1(C)C=Cc2c(cc(O)c3c(=O)c4cc(Cl)ccc4[nH]c23)O1`, the TGI came to 3.01 µM.

Take `O=C(NC1CCCCC1NC(c1ccccc1)(c1ccccc1)c1ccccc1)C(=O)NC1CCCCC1NC(c1ccccc1)(c1ccccc1)c1ccccc1` (configuration not stated): the TGI was above 100 µM.

Molecule `CS(=O)(=O)OCC1CN(S(C)(=O)=O)c2cc(O)ccc21` (configuration not stated) displayed a TGI of 8.27 µM.

The molecule `O=C(O)C12C3CCC(CC3)C1(C(=O)O)C1CCC2C1` (configuration not stated) registered a TGI above 100 µM.

With `CC(C)(C)OC(=O)N/N=C(/N)Cc1ccc(Cl)cc1`, the TGI is above 100 µM.

A further experiment relates to HCT-15 colon. The experiment is described as follows: NCI-60 cell line screen, 48 h.
Take `CC1(C)C=Cc2c(cc(O)c3c(=O)c4cc(Cl)ccc4[nH]c23)O1`: the TGI was above 10 µM.

For the molecule `O=C(NC1CCCCC1NC(c1ccccc1)(c1ccccc1)c1ccccc1)C(=O)NC1CCCCC1NC(c1ccccc1)(c1ccccc1)c1ccccc1` (configuration not stated), the TGI is above 100 µM.

The molecule `CS(=O)(=O)OCC1CN(S(C)(=O)=O)c2cc(O)ccc21` (configuration not stated) came in with a TGI of 12.2 µM.

With `O=C(O)C12C3CCC(CC3)C1(C(=O)O)C1CCC2C1` (configuration not stated), the TGI is above 100 µM.

With `CC1=NC(=Cc2cccc(Cl)c2)C(=O)N1n1c(-c2ccccc2)nc2ccccc2c1=O`, the TGI was above 100 µM.

`CO/C(=N\N=C\c1ccc(OC)c(OC)c1)c1ccncc1` came in with a TGI above 10 µM.

Regarding `CC(C)(C)OC(=O)N/N=C(/N)Cc1ccc(Cl)cc1`, the TGI was above 100 µM.

Another experiment deals with SR leukemia. The experiment is described as follows: NCI-60 cell line screen, 48 h.
`CC1(C)C=Cc2c(cc(O)c3c(=O)c4cc(Cl)ccc4[nH]c23)O1` registered a TGI above 10 µM.

`O=C(NC1CCCCC1NC(c1ccccc1)(c1ccccc1)c1ccccc1)C(=O)NC1CCCCC1NC(c1ccccc1)(c1ccccc1)c1ccccc1` (configuration not stated) came in with a TGI above 100 µM.

As to `CS(=O)(=O)OCC1CN(S(C)(=O)=O)c2cc(O)ccc21` (configuration not stated), the TGI is above 100 µM.

On to `O=C(O)C12C3CCC(CC3)C1(C(=O)O)C1CCC2C1` (configuration not stated), for which the TGI is above 100 µM.

As to `CC1=NC(=Cc2cccc(Cl)c2)C(=O)N1n1c(-c2ccccc2)nc2ccccc2c1=O`, the TGI is 63.5 µM.

For the molecule `CO/C(=N\N=C\c1ccc(OC)c(OC)c1)c1ccncc1`, the TGI is above 10 µM.

In the case of `CC(C)(C)OC(=O)N/N=C(/N)Cc1ccc(Cl)cc1`, the TGI is above 100 µM.

The next experiment concerns COLO 205 colon. Kind of experiment: NCI-60 cell line screen, 48 h.
The molecule `CC1(C)C=Cc2c(cc(O)c3c(=O)c4cc(Cl)ccc4[nH]c23)O1` displayed a TGI above 10 µM.

`O=C(NC1CCCCC1NC(c1ccccc1)(c1ccccc1)c1ccccc1)C(=O)NC1CCCCC1NC(c1ccccc1)(c1ccccc1)c1ccccc1` (configuration not stated): the TGI was above 100 µM.

As to `CS(=O)(=O)OCC1CN(S(C)(=O)=O)c2cc(O)ccc21` (configuration not stated), the TGI was 5.95 µM.

Turning to `O=C(O)C12C3CCC(CC3)C1(C(=O)O)C1CCC2C1` (configuration not stated), the TGI is above 100 µM.

The molecule `CC1=NC(=Cc2cccc(Cl)c2)C(=O)N1n1c(-c2ccccc2)nc2ccccc2c1=O` showed a TGI above 100 µM.

`CO/C(=N\N=C\c1ccc(OC)c(OC)c1)c1ccncc1` registered a TGI above 10 µM.

Molecule `CC(C)(C)OC(=O)N/N=C(/N)Cc1ccc(Cl)cc1` returned a TGI above 100 µM.

The subject of a further experiment is HT29 colon. Kind of experiment: NCI-60 cell line screen, 48 h.
On to `CC1(C)C=Cc2c(cc(O)c3c(=O)c4cc(Cl)ccc4[nH]c23)O1`, for which the TGI is above 10 µM.

As for `O=C(NC1CCCCC1NC(c1ccccc1)(c1ccccc1)c1ccccc1)C(=O)NC1CCCCC1NC(c1ccccc1)(c1ccccc1)c1ccccc1` (configuration not stated), the TGI is above 100 µM.

For `CS(=O)(=O)OCC1CN(S(C)(=O)=O)c2cc(O)ccc21` (configuration not stated), the TGI amounted to 11.1 µM.

Molecule `O=C(O)C12C3CCC(CC3)C1(C(=O)O)C1CCC2C1` (configuration not stated) registered a TGI above 100 µM.

`CC1=NC(=Cc2cccc(Cl)c2)C(=O)N1n1c(-c2ccccc2)nc2ccccc2c1=O` registered a TGI of 94.8 µM.

In the case of `CC(C)(C)OC(=O)N/N=C(/N)Cc1ccc(Cl)cc1`, the TGI was above 100 µM.

A further experiment has as its system HCC-2998 colon. The experiment is described as follows: NCI-60 cell line screen, 48 h.
`CC1(C)C=Cc2c(cc(O)c3c(=O)c4cc(Cl)ccc4[nH]c23)O1`: the TGI was above 10 µM.

`O=C(NC1CCCCC1NC(c1ccccc1)(c1ccccc1)c1ccccc1)C(=O)NC1CCCCC1NC(c1ccccc1)(c1ccccc1)c1ccccc1` (configuration not stated) had a TGI above 100 µM.

`CS(=O)(=O)OCC1CN(S(C)(=O)=O)c2cc(O)ccc21` (configuration not stated) displayed a TGI of 4.47 µM.

`O=C(O)C12C3CCC(CC3)C1(C(=O)O)C1CCC2C1` (configuration not stated) had a TGI above 100 µM.

Consider `CC1=NC(=Cc2cccc(Cl)c2)C(=O)N1n1c(-c2ccccc2)nc2ccccc2c1=O`, for which the TGI was 54.5 µM.

Consider `CO/C(=N\N=C\c1ccc(OC)c(OC)c1)c1ccncc1`, for which the TGI was above 10 µM.

The molecule `CC(C)(C)OC(=O)N/N=C(/N)Cc1ccc(Cl)cc1` showed a TGI above 100 µM.
